The values below are quoted from earlier work in patent US20260374742A1, “METHODS OF PREPARING CARBAMATE DERIVATIVES” (NodThera Limited, priority 2022, published 2026).

The first data set deals with NLRP3 inflammasome. Particulars: literature report.
Take `O=[N+]([O-])C=Cc1ccc2c(c1)OCO2` [3,4-methylenedioxy-β-nitrostyrene]: the “inhibition of NLRP3 activation (in words)” value (from here on “inhibition”) is listed as “impair NLRP3 activation”. Take `NC[C@@H]1O[C@H](c2ccccc2)Cc2c1ccc(O)c2O` [A-68930]: the “inhibition” value is “impair NLRP3 activation”.

In the case of `Cc1ccc(S(=O)(=O)/C=C/C#N)cc1` [Bay 11-7082], the “inhibition” value is reported as “impair NLRP3 activation”. With `CC(C)(O)c1coc(S(=O)(=O)NC(=O)Nc2c3c(cc4c2CCC4)CCC3)c1` [CP-456,773], the “inhibition” value was “specific inhibitor of NLRP3 activation”. `COc1ccc(Cl)cc1C(=O)NCCc1ccc(S(=O)(=O)NC(=O)NC2CCCCC2)cc1` [Glyburide]: the “inhibition” value was “specific inhibitor of NLRP3 activation”. On to `OC[C@H]1O[C@@H](c2ccc(Cl)c(Cc3ccc(O[C@H]4CCOC4)cc3)c2)[C@H](O)[C@@H](O)[C@@H]1O` [epigliflozin], for which the “inhibition” value was “impair NLRP3 activation”. As to `CNCCC(Oc1ccc(C(F)(F)F)cc1)c1ccccc1` (stereo not shown) [fluoxetine], the “inhibition” value was “impair NLRP3 activation”. Turning to `OC(CNCC(O)C1CCc2cc(F)ccc2O1)C1CCc2cc(F)ccc2O1` (stereo not shown) [nebivolol], the “inhibition” value is “impair NLRP3 activation”. In the case of `C=C1C(=O)O[C@H]2[C@H]1CC/C(C)=C/CC[C@@]1(C)O[C@@H]21` [parthenolide], the “inhibition” value is “impair NLRP3 activation”. `O=c1c(O)c(-c2ccc(O)c(O)c2)oc2cc(O)cc(O)c12` [quercetin]: the “inhibition” value was “suppress NLRP3 activation”. Turning to `C[S+]([O-])CCCCN=C=S` (stereo not shown) [sulforaphane], the “inhibition” value is “suppress NLRP3 activation”. With salvianolic acid, the “inhibition” value is given as “suppress NLRP3 activation”.

Still in this data set, the particulars now being: literature; concentrations unlikely attainable in vivo.
As to `COc1ccc(Cl)cc1C(=O)NCCc1ccc(S(=O)(=O)NC(=O)NC2CCCCC2)cc1` [Glyburide], the “concentrations at which NLRP3 activation is inhibited (in words)” value is given as “micromolar concentrations”.
